Laboratory results taken from US9090651B2, “Helix 12 directed pharmaceutical products” (ENDORECHERCHE, INC., priority 2004, dated 2015).
“And” between values parts separate entries of the source, which are not always exact repeats. Equal entries are not always repeated. Where two headings read alike, the source gives them in different places.

Tests used:
[1] = test system: Shionogi mouse mammary carcinoma cells; experiment: Androgenic/antiandrogenic activity on DHT-stimulated Shionogi cell growth; type: cell-based; settings: for Shionogi VS OH-FLU: ratio of Ki hydroxyflutamide versus tested compound
Human Androgen Receptor = biological target: T1, Human Androgen Receptor (Homo sapiens, UniProt P10275); experiment: Androgen receptor binding assay (hydroxylapatite, [3H]R1881, cytosol of transfected HEK-293 cells); settings: for Androgen Receptor Binding (%) Human RBA R1881 = 100: % RBA=100×IC50 R1881/IC50 compound, transfected cells; for RBA human: Table 4, relative to R1881
T1 sequence (P10275 1-920): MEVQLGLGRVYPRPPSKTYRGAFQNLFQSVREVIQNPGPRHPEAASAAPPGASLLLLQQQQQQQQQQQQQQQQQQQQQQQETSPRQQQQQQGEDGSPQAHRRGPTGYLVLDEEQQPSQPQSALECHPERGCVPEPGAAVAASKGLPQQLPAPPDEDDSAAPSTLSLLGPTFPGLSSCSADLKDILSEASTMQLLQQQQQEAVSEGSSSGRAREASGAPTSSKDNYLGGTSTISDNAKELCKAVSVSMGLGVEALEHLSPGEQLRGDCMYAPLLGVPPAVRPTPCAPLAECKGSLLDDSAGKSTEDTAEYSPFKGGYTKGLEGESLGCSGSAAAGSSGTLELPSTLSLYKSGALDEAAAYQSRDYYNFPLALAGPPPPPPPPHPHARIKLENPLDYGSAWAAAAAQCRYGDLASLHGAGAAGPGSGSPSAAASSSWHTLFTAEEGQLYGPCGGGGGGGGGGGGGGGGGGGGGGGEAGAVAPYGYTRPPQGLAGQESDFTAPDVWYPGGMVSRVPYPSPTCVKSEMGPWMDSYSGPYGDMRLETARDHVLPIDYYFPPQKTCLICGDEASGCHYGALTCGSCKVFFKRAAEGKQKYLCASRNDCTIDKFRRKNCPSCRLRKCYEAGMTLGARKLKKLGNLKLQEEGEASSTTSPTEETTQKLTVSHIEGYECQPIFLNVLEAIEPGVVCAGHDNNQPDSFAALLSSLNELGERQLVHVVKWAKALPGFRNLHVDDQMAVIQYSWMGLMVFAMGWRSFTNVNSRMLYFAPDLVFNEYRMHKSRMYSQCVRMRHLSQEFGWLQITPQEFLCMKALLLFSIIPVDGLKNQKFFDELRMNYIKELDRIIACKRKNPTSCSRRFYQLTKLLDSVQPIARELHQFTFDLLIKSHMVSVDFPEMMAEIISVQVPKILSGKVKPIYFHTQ

rat seminal vesicle = experiment: Systemic antiandrogenic activity, orchidectomized immature male rats with DHT implant: seminal vesicle weight; type: in vivo; settings: for inhibition in vivo at 0.5 mg: Rattus norvegicus, 168 h
Experimental: (§1) Immature male rats (Crl:CD(SD)Br) 22 to 24-day old were obtained from Charles-River, Inc. (St-Constant, Quebec, Canada) and housed up to 5 per cage in plastic bins in a temperature (23±1° C.)- and light (12 h light/day, lights on at 7 h15)-controlled environment. The rats were fed rodent chow and tap water ad libitum. The day following their arrival, the animals were orchidectomized (CX) under Isoflurane anesthesia via scrotal route and randomly assigned to groups of 5 animals.
(§2) Compounds were solubilized (when possible) in dimethylsulfoxide (DMSO, 10% final concentration) and administered as suspension in 0.4% methylcellulose. […] One group of animals received the antiandrogen Flutamide as reference. The animals were killed by cervical dislocation under isoflurane anesthesia on the 8th morning following castration. The ventral prostate and seminal vesicles were rapidly dissected and weighed.
(§3) W is the weight of the prostate or the seminal vesicle.

rat prostate = experiment: Systemic antiandrogenic activity, orchidectomized immature male rats with DHT implant: prostate weight; type: in vivo; settings: for inhibition in vivo at 0.5 mg: Rattus norvegicus, 168 h
Experimental: as §1, §2, §3

[2] = test system: sebaceous glands of the left ear; experiment: Topical antiandrogenic activity, ear sebaceous glands model in the male hamster; type: in vivo; settings: Mesocricetus auratus, 336 h, topical on left pinna, read-out: Antiandrogenic activity in Hamster Ear Area Inh Vs Cx (%); for inhibition in vivo at 0.01 mg: 10 μg daily for 14 days; for inhibition in vivo at 0.1 mg: 100 μg daily for 14 days
Experimental: The antiandrogenic activity of compounds for topical use was determined using the ear sebaceous glands model in the male hamster.
Male Golden Syrian Hamsters (SYR) of 110-120 g were obtained from Harlan Sprague-Dawley (Madison, USA) and housed up to 2 per plastic cage in a temperature (22±3° C.) and light (12 h light/day, lights on at 7 h15)-controlled environment. The hamsters were fed with Certified Rodent Diet 5002 (pellet) and had access to tap water ad libitum. The animals were acclimatized for at least five days prior to beginning the study. Animals were randomly assigned to groups of eight hamsters. One group of hamsters were castrated under isoflurane-induced anesthesia on the day of dosing initiation (SD 1) and used as control group.
To evaluate the antiandrogenic activity, the tested compounds were applied topically on the inner part of the left ear, once daily, for 14 days. […] For animals of the castrated and intact control groups, one ten-μL vehicle was applied onto the left ear. No solution was applied on the right ear.
On Study Day 15, the hamsters were euthanized by cervical dislocation under isoflurane anesthesia. The left and right ears were collected attached together by the head skin, flat fixed on a paper and then immersed in 10% neutral buffered formalin. Punctures making a circular hole of 6 mm were made on the flat fixed ear in the region where the solution has been applied. These punch-made specimens were collected from each ear. Using a scalpel blade, the collected 6 mm round ear specimens were cut in the middle between the two cartilage ridges. The two equal parts of the ear round specimens were embedded in paraffin. After processing the tissue, the two parts were vertically embedded parallel to each other in such a way that the flat 6 mm area was facing out. From each paraffin block, one section (5 μm thick) was cut and collected on a glass slide. Thus, each slide contained two elongated sections of 6 mm length. Slides were stained with hematoxylin and eosin.
Using the video camera and the lens number X5 of the light microscope, the resulting field appearing on the screen has a length of 0.953 mm. When the first 6 mm long section was examined from the left to the right, the first and second fields were ignored and the third and fourth fields were captured for analysis by the image analyzer. Each field has the length of 0.953 mm. With the help of the screen mouse, the sebaceous glands within the whole field length (0.953 mm) were marked. Also, an area having the length of the whole field and the height between stratum granulosum and the upper edge of the cartilage was drawn.
The total area of the sebaceous glands (μm^2) in each examined field was calculated by the Image Analyser. We also measured the total area, which has the length of 0.953 mm and the height between stratum granulosum and the cartilage. In addition, the percentage of the area occupied by the glands was obtained. Thus, for each ear, two sections were cut and two fields from each section were analyzed. The total of the four readings was averaged and the mean standard error of the mean was calculated by the image analyzer. The results were expressed in μm^2 as the total surface of glands per field and also as percentage of the area occupied by the glands in the tissue.

[3] = Mus musculus, read-out: Shionogi Antiandrogenic activity IC50 (nM), inhibition of DHT-stimulated Shionogi cell number
[4] = Mus musculus, read-out: Shionogi IC50 (nM), Table 4, inhibition of DHT-stimulated Shionogi cell number
[5] = po, 0.5 mg, per os, read-out: SV RAT Inh % inh (0.5 mg, per os)
[6] = po, 0.5 mg, per os, read-out: Prostate Rat Inh % inh (0.5 mg, per os)

Row | Compound | IC50 [1, 3] | IC50 [1, 4] | Shionogi VS OH-FLU ([1]; Table 4) | Androgen Receptor Binding (%) Human RBA R1881 = 100 (Human Androgen Receptor) | RBA human (Human Androgen Receptor) | inhibition in vivo at 0.5 mg (rat seminal vesicle; [5]) | inhibition in vivo at 0.5 mg (rat prostate; [6]) | inhibition in vivo at 0.01 mg [2] | inhibition in vivo at 0.1 mg [2] | IC50 ([1]; read-out: Shionogi Antiandrogenic activity IC50, inhibition of DHT-stimulated Shionogi cell number) | IC50 ([1]; read-out: Shionogi IC50, Table 4, inhibition of DHT-stimulated Shionogi cell number) | inhibition in vivo at 0.5 mg (rat seminal vesicle; sc, read-out: IN VIVO Rat s.c. (+DHT) SV % inhibition, s.c., 0.5 mg/animal once daily for 7 days, +DHT) | IN VIVO Rat (+DHT) SV % inhibition (per os) (rat seminal vesicle; per os, +DHT) | SV RAT Inh % inh, s.c. (rat seminal vesicle; s.c.) | inhibition in vivo at 0.5 mg (rat prostate; sc, read-out: IN VIVO Rat s.c. (+DHT) Prostate % inhibition, s.c., 0.5 mg/animal once daily for 7 days, +DHT) | IN VIVO Rat (+DHT) Prostate % inhibition (per os) (rat prostate; per os, +DHT) | Prostate Rat Inh % inh, s.c. (rat prostate; s.c.)
1 | CC(C)CN1CCCCC1c1cccc(OCC[C@]23CCC4C(CCC5CC(=O)CC[C@@]54C)C2CC[C@@H]3O)c1 (stereo partly drawn) [EM-6493] | 4.3 nM | 3.6 nM | 16 | 92% and 173% | 173% | 19% | 15% | 44% | 63% |  |  |  |  |  |  |  | 
2 | CCN(C1CCCCC1)[C@H](C)c1cccc(OCC[C@]23CCC4C(CCC5CC(=O)CC[C@@]54C)C2CC[C@@H]3O)c1 (stereo partly drawn) [EM-6414] | 4 nM | 4 nM | 1 | 121% | 71% | 28% | 6% | 55% | 64% |  |  |  |  |  |  |  | 
3 | CC(C)CNC(C)(C)c1cccc(OCC[C@]23CCC4C(CCC5CC(=O)CC[C@@]54C)C2CC[C@@H]3O)c1 (stereo partly drawn) [EM-6534] | 0.4 nM | 0.23 nM | 267 | 112% | 112% | 16% | 9% | 48% | 84% |  |  |  |  |  |  |  | 
4 | CCC(NC1CCCC1)c1cccc(OCC[C@]23CCC4C(CCC5CC(=O)CC[C@@]54C)C2CC[C@@H]3OC)c1 (stereo partly drawn) [EM-6640] |  | 18 nM | 5.3 |  | 438% | 0% | 10% | 46.3% |  |  |  |  |  |  |  |  | 
5 | CC[C@H](NC1CCCCC1)c1cccc(OCC[C@]23CCC4C(CCC5CC(=O)CC[C@@]54C)C2CC[C@@H]3O)c1 (stereo partly drawn) [EM-6415] | 0.47 nM | 1.4 nM | 29 | 230% | 185% | 0% | 14% | 52% | 84% |  |  |  |  |  |  |  | 
6 | COC1CCC2C3CCC4CC(=O)CC[C@]4(C)C3CC[C@]12CCOc1cccc(C(C)(C)NCC(C)C)c1 (stereo partly drawn) [EM-6628] |  | 5.9 nM | 14 |  | 796% | 0% | 15% | 58.1% |  |  |  |  |  |  |  |  | 
7 | CCC(CC)NC(CC)c1cccc(OCC[C@]23CCC4C(CCC5CC(=O)CC[C@@]54C)C2CC[C@@H]3O)c1 (stereo partly drawn) [EM-6339] | 2.3 nM | 2.3 nM |  | 240% and 236% | 236% |  |  | 55% | 67% | 3 nM | 3 nM |  |  |  |  |  | 
8 | CCC[C@H](NC(CC)CC)c1cccc(OCC[C@]23CCC4C(CCC5CC(=O)CC[C@@]54C)C2CC[C@@H]3O)c1 (stereo in doubt) [EM-6445] | 0.2 nM | 0.2 nM | 231 | 168% | 336% | 0% | 3% |  | 96% |  |  |  |  |  |  |  | 
9 | CCCC(NC(CC)CC)c1cccc(OCC[C@]23CCC4C(CCC5CC(=O)CC[C@@]54C)C2CCC3=O)c1 (stereo partly drawn) [EM-6842] |  | 0.4 nM | 183 |  | 451% | 27% | 18% | 63.8% |  |  |  |  |  |  |  |  | 
10 | CCC(CC)NC(c1cccc(OCC[C@]23CCC4C(CCC5CC(=O)CC[C@@]54C)C2CC[C@@H]3O)c1)C(C)C (stereo partly drawn) [EM-6446] |  | 1 nM | 51 |  | 715% | 3% | 11% | 56% | 79% |  |  |  |  |  |  |  | 
11 | CCCCCN1CCCCC1c1cccc(OCC[C@]23CCC4C(CCC5CC(=O)CC[C@@]54C)C2CC[C@@H]3O)c1 (stereo partly drawn) [EM-6494] | 10.5 nM | 10.5 nM | 5.4 | 63% and 97% | 97% | 1% | 0% |  | 68% |  |  |  |  |  |  |  | 
12 | CCC[C@H](NC1CCCCC1)c1cccc(OCC[C@]23CCC4C(CCC5CC(=O)CC[C@@]54C)C2CCC3=O)c1 (stereo partly drawn) [EM-6736] |  | 1.8 nM | 43 |  | 154% |  |  | 49.5% |  |  |  |  |  |  |  |  | 
13 | CC(C)CNC(C)(C)c1cccc(OCC[C@]23CCC4C(CCC5CC(=O)CC[C@@]54C)C2CCC3=O)c1 (stereo partly drawn) [EM-6741] |  | 0.6 nM | 153 |  | 230% |  |  | 51.7% |  |  |  |  |  |  |  |  | 
14 | CCC(CC)N(C)C(CC)c1cccc(OCC[C@]23CCC4C5CCC(=O)C=C5CCC4C2CC[C@@H]3O)c1 (stereo partly drawn) [EM-6680] | 1.2 nM |  |  | 140% | 140% | 21% | 0% | 64.7% |  |  |  | 40% | 21% | 40% | 0% | 0 (p.o.) % | 0 s.c. 0%
